We go through 25 molecules from patent publication US20260125400A1, “TYK2 DEGRADERS AND USES THEREOF” (Kymera Therapeutics, Inc., priority 2023, published 2026).

This assay addresses T1, TYK2 (Homo sapiens, UniProt P29597).
T1 construct: Degradation of TYK2 in cells was quantitatively measured using Meso Scale Discovery (MSD) technology; endogenous in cells; host or cells: OCI-LY10
As to the kind of experiment: TYK2 MSD degradation in OCI-LY10 cells. In kind it is cell-based. Particulars: TYK2 degradation in OCI-LY10 cells, 4 to 24 hours incubation; for DC50: read-out: TYK2 MSD OCI-LY10 Rel-DC50. In outline: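 OCI-LY10 cells were treated with 9-dose 1:3 series (top 1 to 10 μM final) for 4 to 24 hours at 37° C. Lysate TYK2 quantified by MSD sandwich immunoassay; DC50 and Dmax from four-parameter inhibitor vs. response fit.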

The term DC50 denotes the concentration giving 50% degradation.

SMILES strings stand for the structures.

T1 sequence (P29597 whole entry): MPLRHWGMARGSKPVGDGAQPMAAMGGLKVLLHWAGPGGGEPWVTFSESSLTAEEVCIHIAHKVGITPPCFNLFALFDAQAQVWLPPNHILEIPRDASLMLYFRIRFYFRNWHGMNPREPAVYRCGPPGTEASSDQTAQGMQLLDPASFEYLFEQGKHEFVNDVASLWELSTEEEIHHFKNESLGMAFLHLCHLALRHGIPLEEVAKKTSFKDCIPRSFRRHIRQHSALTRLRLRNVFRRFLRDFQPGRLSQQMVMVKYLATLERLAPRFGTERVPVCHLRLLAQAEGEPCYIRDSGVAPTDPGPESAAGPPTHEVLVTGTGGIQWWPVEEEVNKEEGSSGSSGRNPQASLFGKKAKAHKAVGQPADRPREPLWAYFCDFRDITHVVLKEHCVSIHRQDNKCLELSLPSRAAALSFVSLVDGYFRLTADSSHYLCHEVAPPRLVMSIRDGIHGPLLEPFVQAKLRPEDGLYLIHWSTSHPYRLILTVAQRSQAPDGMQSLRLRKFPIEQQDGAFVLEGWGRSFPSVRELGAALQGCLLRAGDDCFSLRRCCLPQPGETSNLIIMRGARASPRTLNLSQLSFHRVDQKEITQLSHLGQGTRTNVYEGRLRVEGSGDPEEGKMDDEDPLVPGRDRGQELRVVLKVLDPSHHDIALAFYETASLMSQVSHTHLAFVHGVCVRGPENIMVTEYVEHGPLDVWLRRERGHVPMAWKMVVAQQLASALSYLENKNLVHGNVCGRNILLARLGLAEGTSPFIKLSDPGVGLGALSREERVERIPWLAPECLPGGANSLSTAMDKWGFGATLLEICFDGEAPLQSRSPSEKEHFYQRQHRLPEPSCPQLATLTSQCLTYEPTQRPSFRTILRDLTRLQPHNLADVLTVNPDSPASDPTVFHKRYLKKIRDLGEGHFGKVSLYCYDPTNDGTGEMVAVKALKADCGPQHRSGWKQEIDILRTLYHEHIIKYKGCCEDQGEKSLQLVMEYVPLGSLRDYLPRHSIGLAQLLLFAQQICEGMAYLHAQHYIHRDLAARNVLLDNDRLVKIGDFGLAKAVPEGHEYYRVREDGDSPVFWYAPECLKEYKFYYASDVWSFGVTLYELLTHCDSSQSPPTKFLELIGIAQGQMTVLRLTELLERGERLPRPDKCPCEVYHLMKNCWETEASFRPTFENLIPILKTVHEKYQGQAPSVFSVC

Turning to `CNc1cc(N2CCc3c(-c4ncc(CN5CC6(CCN(C(=O)c7cc(N8CCC(=O)NC8=O)c(OC)cc7F)CC6(F)F)C5)cc4F)cccc32)nn2c(C(=O)N[C@@H]3CC[C@H]3OC)cnc12` [I-1134], the “TYK2 MSD OCI-LY10 Dmax %” value is “A (A (>90%))” and the DC50 was less than 1 nM.

In the case of `CNc1cc(N2CCc3c(-c4ncc(CN5CC6(CCN(C(=O)c7cc(N8CCC(=O)NC8=O)c(OC)cc7C)CC6(F)F)C5)cc4F)cccc32)nn2c(C(=O)N[C@@H]3CC[C@H]3OC)cnc12` [I-1135], the “TYK2 MSD OCI-LY10 Dmax %” value was “A (A (>90%))” and the 50% degradation concentration (DC50) is less than 1 nM.

As to `CNc1cc(N2CCc3c(-c4ncc(CN5CC6(CCN(C(=O)c7cc(OC)c(C)c(N8CCC(=O)NC8=O)c7)CC6(F)F)C5)cc4F)cccc32)nn2c(C(=O)N[C@@H]3CC[C@H]3OC)cnc12` [I-1137], the “TYK2 MSD OCI-LY10 Dmax %” value is given as “A (A (>90%))” and the DC50 was less than 1 nM.

Consider `CNc1cc(N2CCc3c(-c4ncc(CN5CC6(CCN(C(=O)c7cc(C)c(OC)c(N8CCC(=O)NC8=O)c7)CC6(F)F)C5)cc4F)cccc32)nn2c(C(=O)N[C@@H]3CC[C@H]3OC)cnc12` [I-1138], for which the “TYK2 MSD OCI-LY10 Dmax %” value is given as “B (B (90 to >75%))” and the DC50 was less than 1 nM.

On to `CNc1cc(N2CCc3c(-c4ncc(C(=O)N5CC6(CCN(C(=O)c7cc(C)c(Cl)c(N8CCC(=O)NC8=O)c7)CC6(F)F)C5)cc4F)cccc32)nn2c(C(=O)N[C@@H]3CC[C@H]3OC)cnc12` [I-1139], for which the “TYK2 MSD OCI-LY10 Dmax %” value was “A (A (>90%))” and the DC50 is less than 1 nM.

Consider `CNc1cc(N2CCc3c(-c4ncc(C(=O)N5CC6(CCN(C(=O)c7cc(C)c(Cl)c(N8CCC(=O)NC8=O)c7)CC6)C5)cc4F)cccc32)nn2c(C(=O)N[C@@H]3CC[C@H]3OC)cnc12` [I-1140], for which the “TYK2 MSD OCI-LY10 Dmax %” value was “A (A (>90%))” and the DC50 is less than 1 nM.

Turning to `CNc1cc(N2CCc3c(CN4CC[C@@H](N5CCC6(CC5)CN(C(=O)c5cc(Cl)c(C)c(N7CCC(=O)NC7=O)c5)C6)C(F)(F)C4)cccc32)nn2c(C(=O)N[C@@H]3CC[C@H]3OC)cnc12` [I-1141], the “TYK2 MSD OCI-LY10 Dmax %” value is “A (A (>90%))” and the 50% degradation concentration (DC50) was less than 1 nM.

Consider `CNc1cc(N2CCc3c(CN4CC[C@H](N5CCC6(CC5)CN(C(=O)c5cc(Cl)c(C)c(N7CCC(=O)NC7=O)c5)C6)C(F)(F)C4)cccc32)nn2c(C(=O)N[C@@H]3CC[C@H]3OC)cnc12` [I-1142], for which the “TYK2 MSD OCI-LY10 Dmax %” value was “A (A (>90%))” and the DC50 was less than 1 nM.

As to `CNc1cc(N2CCc3c(-c4ncc([C@H](C)N5CC6(CCN(C(=O)c7cc(C)c(Cl)c(N8CCC(=O)NC8=O)c7)CC6(F)F)C5)cc4F)cccc32)nn2c(C(=O)N[C@@H]3CC[C@H]3OC)cnc12` [I-1143], the “TYK2 MSD OCI-LY10 Dmax %” value is “A (A (>90%))” and the DC50 is less than 1 nM.

Turning to `CNc1cc(N2CCc3c(-c4ncc([C@@H](C)N5CC6(CCN(C(=O)c7cc(C)c(Cl)c(N8CCC(=O)NC8=O)c7)CC6(F)F)C5)cc4F)cccc32)nn2c(C(=O)N[C@@H]3CC[C@H]3OC)cnc12` [I-1144], the “TYK2 MSD OCI-LY10 Dmax %” value is “B (B (90 to >75%))” and the DC50 was less than 1 nM.

`CNc1cc(N2CCc3c(CN4CC[C@@H](N5CCC6(CCN(C(=O)c7cc(Cl)c(Cl)c(N8CCC(=O)NC8=O)c7)CC6)CC5)C(F)(F)C4)cccc32)nn2c(C(=O)N[C@@H]3CC[C@H]3OC)cnc12` [I-1145]: the “TYK2 MSD OCI-LY10 Dmax %” value is “A (A (>90%))” and the half-maximal degradation concentration (DC50) was less than 1 nM.

Take `CNc1cc(N2CCc3c(CN4CC[C@H](N5CCC6(CCN(C(=O)c7cc(Cl)c(Cl)c(N8CCC(=O)NC8=O)c7)CC6)CC5)C(F)(F)C4)cccc32)nn2c(C(=O)N[C@@H]3CC[C@H]3OC)cnc12` [I-1146]: the “TYK2 MSD OCI-LY10 Dmax %” value is listed as “A (A (>90%))” and the DC50 was less than 1 nM.

As for `CNc1cc(N2CCc3c(CN4CC[C@@H](N5CCC6(CCN(C(=O)c7cc(N8CCC(=O)NC8=O)c(Cl)cn7)CC6)CC5)C(F)(F)C4)cc(F)cc32)nn2c(C(=O)N[C@@H]3CC[C@H]3OC)cnc12` [I-1147], the “TYK2 MSD OCI-LY10 Dmax %” value is recorded as “A (A (>90%))” and the DC50 was less than 1 nM.

As to `CNc1cc(N2CCc3c(CN4CC[C@H](N5CCC6(CCN(C(=O)c7cc(N8CCC(=O)NC8=O)c(Cl)cn7)CC6)CC5)C(F)(F)C4)cc(F)cc32)nn2c(C(=O)N[C@@H]3CC[C@H]3OC)cnc12` [I-1148], the “TYK2 MSD OCI-LY10 Dmax %” value was “B (B (90 to >75%))” and the half-maximal degradation concentration (DC50) is less than 1 nM.

Turning to `CNc1cc(N2CCc3c(-c4ncc(CN5CC6(CCN(C(=O)c7cc(N8CCC(=O)NC8=O)c(Cl)cn7)CC6(F)F)C5)cc4F)cc(F)cc32)nn2c(C(=O)N[C@@H]3CC[C@H]3OC)cnc12` [I-1149], the “TYK2 MSD OCI-LY10 Dmax %” value is “A (A (>90%))” and the 50% degradation concentration (DC50) is less than 1 nM.

As to `CNc1cc(N2CCc3c(-c4ncc(CN5CC6(CCN(C(=O)c7cc(N8CCC(=O)NC8=O)c(Cl)c(C)n7)CC6(F)F)C5)cc4F)cc(F)cc32)nn2c(C(=O)N[C@@H]3C[C@@H]3F)cnc12` [I-1150], the “TYK2 MSD OCI-LY10 Dmax %” value is reported as “A (A (>90%))” and the half-maximal degradation concentration (DC50) was less than 1 nM.

On to `CNc1cc(N2CCc3c(-c4ncc(CN5CC6(CCN(C(=O)c7cc(N8CCC(=O)NC8=O)c(Cl)c(C)n7)CC6(F)F)C5)cc4F)cc(F)cc32)nn2c(C(=O)N[C@@H]3CC[C@H]3OC)cnc12` [I-1151], for which the “TYK2 MSD OCI-LY10 Dmax %” value was “A (A (>90%))” and the DC50 was less than 1 nM.

On to `CNc1cc(N2CCc3c(-c4ncc(CN5CC6(CCN(C(=O)c7cc(N8CCC(=O)NC8=O)c(F)cn7)CC6(F)F)C5)cc4F)cc(F)cc32)nn2c(C(=O)N[C@@H]3C[C@@H]3F)cnc12` [I-1153], for which the “TYK2 MSD OCI-LY10 Dmax %” value is “B (B (90 to >75%))” and the DC50 is less than 10 nM.

Turning to `CNc1cc(N2CCc3c(-c4ncc(CN5CC6(CCN(C(=O)c7ccc(Cl)c(N8CCC(=O)NC8=O)c7)CC6(F)F)C5)cc4F)cccc32)nn2c(C(=O)N[C@@H]3CC[C@H]3OC)cnc12` [I-1154], the “TYK2 MSD OCI-LY10 Dmax %” value is recorded as “A (A (>90%))” and the DC50 was less than 1 nM.

With `CNc1cc(N2CCc3c(-c4ncc(CN5CC6(CCN(C(=O)c7cc(N8CCC(=O)NC8=O)c(F)cn7)CC6(F)F)C5)cc4F)cc(F)cc32)nn2c(C(=O)N[C@@H]3CC[C@H]3OC)cnc12` [I-1155], the “TYK2 MSD OCI-LY10 Dmax %” value was “B (B (90 to >75%))” and the DC50 was less than 1 nM.

For the molecule `CNc1cc(N2CCc3c(CN4CCC(N5CCC6(CC5)CN(C(=O)c5cc(N7CCC(=O)NC7=O)c(Cl)c(C)n5)C6)C(F)(F)C4)cccc32)nn2c(C(=O)N[C@@H]3CC[C@H]3OC)cnc12` (some centres unmarked) [I-1156], the “TYK2 MSD OCI-LY10 Dmax %” value is “B (B (90 to >75%))” and the DC50 was less than 1 nM.

`CNc1cc(N2CCc3c(CN4CCC(N5CCC6(CCN(C(=O)c7cc(N8CCC(=O)NC8=O)c(Cl)c(C)n7)CC6)CC5)C(F)(F)C4)cccc32)nn2c(C(=O)N[C@@H]3CC[C@H]3OC)cnc12` (some centres unmarked) [I-1157]: the “TYK2 MSD OCI-LY10 Dmax %” value is recorded as “A (A (>90%))” and the 50% degradation concentration (DC50) is less than 1 nM.

On to `CNc1cc(N2CCc3c(CN4CCC(N5CCC6(CC5)CN(C(=O)c5cc(N7CCC(=O)NC7=O)c(Cl)cn5)C6)C(F)(F)C4)cccc32)nn2c(C(=O)N[C@@H]3CC[C@H]3OC)cnc12` (some centres unmarked) [I-1158], for which the “TYK2 MSD OCI-LY10 Dmax %” value is “A (A (>90%))” and the DC50 was less than 1 nM.

Consider `CNc1cc(N2CCc3c(CN4CCC(N5CCC6(CCN(C(=O)c7cc(N8CCC(=O)NC8=O)c(Cl)c(C)n7)CC6)CC5)C(F)(F)C4)cc(F)cc32)nn2c(C(=O)N[C@@H]3CC[C@H]3OC)cnc12` (some centres unmarked) [I-1159], for which the “TYK2 MSD OCI-LY10 Dmax %” value is “A (A (>90%))” and the DC50 was less than 1 nM.

With `CNc1cc(N2CCc3c(-c4ccc(CN5CCN(C6CCN(C(=O)c7cc(C)c(Cl)c(N8CCC(=O)NC8=O)c7)CC6(F)F)CC5)cn4)cccc32)nn2c(C(=O)N[C@@H]3CC[C@H]3OC)cnc12` (some centres unmarked) [I-1161], the “TYK2 MSD OCI-LY10 Dmax %” value is “B (B (90 to >75%))” and the DC50 was less than 1 nM.
